These are literature values, as cited in patent US20090306049A1, “Treatment of Barrett's Esophagus” (HUBRECHT LABORATORIUM, priority 2005, published 2009).

The series deals with Barrett's carcinoma.

Turning to `O=P1(NCCCl)OCCCN1CCCl` (stereo not shown) [ifosfamide], under “25 patients treated”, the “overall efficacy of treatment” value is listed as “essentially ineffective”, the “patients cured of metastatic adenocarcinoma in Barrett's oesophagus” value was “One” and the “patients with a partial response” value is on record as “one”. Moreover, for the setting “generally considered”, the “toxicity associated with treatment” value is recorded as “severe toxicity”.
